Source: publication PMC12040169 (PLOS Biology, 2025)

Assay: in vitro
Settings: human, hela cells, % viability

Q: For Cc1noc(C)c1NC(=O)c1cncnc1 [CBK200382], which viability at 28.5 h, 10 µM is on record?
A: 112%

Q: For NS(=O)(=O)c1ccc(CCNC(=O)c2ccccc2Oc2ccccc2)cc1 [CBK264394], which viability at 28.5 h, 10 µM is on record?
A: 89.4%

Q: Which viability at 28.5 h, 10 µM does the source give for O=C(c1ccccc1)c1cc(Cl)ccc1-n1ccnc1Br [CBK016011] here?
A: 90.4%

Q: Which viability at 28.5 h, 10 µM (bulk resorufin, single well) does the source give for CCOC(=O)N1CCC2(CC1)OCc1ccc(Oc3ccncc3)cc1O2 [CBK174776] here?
A: 102%

Q: With CCOC(=O)c1cnc(NS(=O)(=O)c2cccc(Cl)c2C)nc1C [CBK004707] as the molecule, how does the viability at 28.5 h, 10 µM read?
A: 105%

Q: Which viability at 28.5 h, 10 µM does the source give for Cc1cc(C(=O)N(C)C2CCCCC2)no1 [CBK057375] here?
A: 113%

Q: With O=S1(=O)CC(OS(=O)(=O)c2ccc(Cl)cc2)C(OS(=O)(=O)c2ccc(Cl)cc2)C1 (centres unmarked) [CBK262049] as the molecule, how does the viability at 28.5 h, 10 µM read?
A: 104%

Q: For O=C(CNCc1ccc2c(c1)OCO2)NCc1ccc2c(c1)OCO2 [CBK074763], which viability at 28.5 h, 10 µM is on record?
A: 86.8%

Q: For CCN(CC)C(=O)C1CCCN(C(=O)NCC(c2ccccc2)c2ccccc2)C1 (centres unmarked) [CBK156145], which viability at 28.5 h, 10 µM is on record?
A: 94.4%

Q: For CC(=O)Nc1ccc(CNC(=O)CN2CCCC(c3ncc[nH]3)C2)cc1 (centres unmarked) [CBK307718], which viability at 28.5 h, 10 µM is on record?
A: 96.5%

Q: For CNC(=O)C1(Cc2ccccc2-c2ccccc2)CCN(C(=O)Cc2cccc(C)c2)CC1 [CBK285594], which viability at 28.5 h, 10 µM is on record?
A: 104%

Q: Which viability at 28.5 h, 10 µM does the source give for CS(=O)(=O)N1CC2(CCN(Cc3cccc(C(F)(F)F)c3)CC2)c2ccccc21 [CBK126670] here?
A: 96.8%

Q: Which viability at 28.5 h, 10 µM does the source give for CN1CCC2CN(CCCC(c3ccc(F)cc3)c3ccc(F)cc3)CCN2C1=O (centres unmarked) [CBK024865C] here?
A: 89.9%

Q: Which viability at 28.5 h, 10 µM does the source give for Cn1c(=O)c2[nH]c(N3CCN(c4cccc(O)c4)CC3)nc2n(C)c1=O [CBK269760] here?
A: 104%

Q: Which viability at 28.5 h, 10 µM does the source give for Cc1cccn2c(=O)cc(CN3CCC(c4ccn[nH]4)CC3)nc12 [CBK305951] here?
A: 93.2%

Q: For COc1ccc(CN(C)C(=O)CCc2c(C)nc3c(cnn3C(C)C)c2C)cc1 [CBK297087], which viability at 28.5 h, 10 µM is on record?
A: 80.6%

Q: Which viability at 28.5 h, 10 µM does the source give for COc1ccccc1C1(O)CCN(CC(O)c2ccc(C(C)(C)C)cc2)CC1 (centres unmarked) [CBK286335] here?
A: 96.2%

Q: For OCc1cc(CC2(NCc3cccc4c3OCO4)COC2)no1 [CBK289314], which viability at 28.5 h, 10 µM is on record?
A: 90.6%

Q: Which viability at 28.5 h, 10 µM does the source give for CCc1nnc(NS(=O)(=O)c2cc(C(=O)O)c(Cl)cc2F)s1 [CBK062195] here?
A: 90.9%

Q: For O=C(c1csc(-c2ccccc2)n1)N1CCn2nc(C3CC3)cc2C1 [CBK304676], which viability at 28.5 h, 10 µM is on record?
A: 95.9%

Q: With COc1cc(Nc2cccc(-c3ccc4ccccc4c3)n2)cc(OC)c1OC [CBK037612] as the molecule, how does the viability at 28.5 h, 10 µM read?
A: 97.9%

Q: For Cc1cc(C)nc(-n2[nH]c(N)cc2=O)n1 [CBK270164], which viability at 28.5 h, 10 µM is on record?
A: 85.7%

Q: For O=C(COc1ccc2c3c(c(=O)oc2c1)CCC3)Nc1ccc(S(=O)(=O)N2CCOCC2)cc1 [CBK265640], which viability at 28.5 h, 10 µM is on record?
A: 82.4%

Q: With CC(=O)N1CCc2cc(Nc3ncnc4c3cnn4CCC#N)ccc21 [CBK305950] as the molecule, how does the viability at 28.5 h, 10 µM read?
A: 101%

Q: For COc1cccc(CNC(=O)C2CCN(c3nc4c(-c5cccc(C)c5)csc4c(=O)[nH]3)CC2)c1 [CBK215603], which viability at 28.5 h, 10 µM is on record?
A: 84.9%

Q: With CCNC(=O)Nc1cc2ccccc2c(-c2ccc(F)cc2OC)n1 [CBK085731] as the molecule, how does the viability at 28.5 h, 10 µM read?
A: 62.9%

Q: For Cn1c(NCc2ccco2)nc2c1c(=O)n(Cc1cccc(Br)c1)c(=O)n2C [CBK268863], which viability at 28.5 h, 10 µM is on record?
A: 79.8%

Q: With COc1ccc(Br)cc1C(=O)NCC1(c2ccccc2)CCOCC1 [CBK067051] as the molecule, how does the viability at 28.5 h, 10 µM read?
A: 82.7%

Q: With Cc1nc(C)n(CC(=O)N[C@H]2C3CCCCC3[C@@H]2c2ccccc2)n1 (some centres unmarked) [CBK285128] as the molecule, how does the viability at 28.5 h, 10 µM read?
A: 94.7%

Q: For CC(C)C(=O)N1CCCC2(CC1)CN(C)Cc1ccccc1O2 (centres unmarked) [CBK285132], which viability at 28.5 h, 10 µM is on record?
A: 103%

Q: With Cc1ccc(C(=O)C(NC(=O)c2cccs2)Nc2ccc(S(N)(=O)=O)cc2)cc1 (centres unmarked) [CBK264897] as the molecule, how does the viability at 28.5 h, 10 µM read?
A: 89%

Q: For CC(C)c1cc(C(=O)N2CCN(C)C(=O)C2Cc2ccccc2-c2ccc(F)cc2)[nH]n1 (centres unmarked) [CBK285833], which viability at 28.5 h, 10 µM is on record?
A: 92.1%

Q: With CC(=O)c1c(C)[nH]c(C(=O)N2CCC(C#N)(c3ccccc3)CC2)c1C [CBK091404] as the molecule, how does the viability at 28.5 h, 10 µM (bulk resorufin, single well) read?
A: 93.3%

Q: For COCCn1cc(C(=O)N(CC(N)=O)C2CCCC2)c2ccccc21 [CBK305802], which viability at 28.5 h, 10 µM (bulk resorufin, single well) is on record?
A: 84.1%

Q: With O=C(c1ccccc1F)N1CC2CCCC(C1)C2N1CCOCC1 (centres unmarked) [CBK285262] as the molecule, how does the viability at 28.5 h, 10 µM read?
A: 79.9%

Q: For c1ccc(CCN2CCN(Cc3cccnc3)CC2)cc1 [CBK126424], which viability at 28.5 h, 10 µM is on record?
A: 103%

Q: Which viability at 28.5 h, 10 µM does the source give for CSc1cc(-c2cccs2)[nH]c(=O)c1C#N [CBK006350] here?
A: 79.7%

Q: For CC1CCN(c2nc(-c3ccccc3O)nc3ccccc23)CC1 [CBK066899], which viability at 28.5 h, 10 µM is on record?
A: 109%

Q: With CSCCC(C(=O)O)N1C(=O)c2ccc(C(=O)O)cc2C1=O (centres unmarked) [CBK265135] as the molecule, how does the viability at 28.5 h, 10 µM read?
A: 110%

Q: With c1coc(COc2cncc(N3CCNCC3)n2)c1 [CBK013393] as the molecule, how does the viability at 28.5 h, 10 µM read?
A: 94.2%

Q: Which viability at 28.5 h, 10 µM does the source give for CN1CCN(c2n[nH]c(N)n2)CC1 [CBK026743] here?
A: 90.5%

Q: With COCc1cccc(-c2ncc(OCCN3CCCC3=O)nc2N)c1 [CBK145110] as the molecule, how does the viability at 28.5 h, 10 µM read?
A: 93.6%

Q: With Cc1nc([N+](=O)[O-])c(SCC(O)CN2CCCCC2)[nH]1 (centres unmarked) [CBK261727] as the molecule, how does the viability at 28.5 h, 10 µM read?
A: 88.7%

Q: With CC(C)c1cc(C(=O)N2CCCCCC2c2cnn(C)c2)no1 (centres unmarked) [CBK284971] as the molecule, how does the viability at 28.5 h, 10 µM read?
A: 108%
